Measurements as given in the OligoGym collection.
Bases are written 5' to 3'; sugars and linkages follow in the same order, as letters with counts (s phosphorothioate, o phosphodiester; PS: all linkages phosphorothioate). The collection does not say whether C is 5-methylated. l = locked nucleic acid (LNA); d = 2'-deoxy (DNA)

Molecular target: Tau
Assay: rat primary cortical neurons, FLIPR, 25 uM ASO

Sequence	calcium oscillation score
CTAATCCTGTGCTTCA (sugars l3 d10 l3, PS)	100 % of control
CTAATGAGCCACACTTGGAG (sugars l3 d14 l3, PS)	46.5 % of control
CTAATTACATTTTTTCTT (sugars l4 d10 l4, PS)	63.9 % of control
CTAATTACATTTTTTCTTT (sugars l4 d11 l4, PS)	62.6 % of control
CTAATTACATTTTTTCTTTT (sugars l4 d12 l4, PS)	60.1 % of control
CTAATTCCCAAATTCCTCA (sugars l2 d14 l3, PS)	62.1 % of control
CTAATTCCCAAATTCCTCAT (sugars l3 d14 l3, PS)	60.9 % of control
CTAATTTAGTCACCATC (sugars l3 d10 l4, PS)	83.3 % of control
CTACAAACCAGTTACC (sugars l3 d9 l4, PS)	107 % of control
CTACAAACCAGTTACCA (sugars l3 d11 l3, PS)	69.9 % of control
CTACACCACTGTTCCATA (sugars l1 d15 l2, PS)	62 % of control
CTACATTTTTGTCTCAT (sugars l4 d10 l3, PS)	65.4 % of control
CTACCATGTCGATG (sugars l3 d8 l3, PS)	6.9 % of control
CTACCATGTCGATGCT (sugars l3 d10 l3, PS)	99.7 % of control
CTACCCCATTTTTGACAT (sugars l3 d13 l2, PS)	48.7 % of control
CTACTATTTACTATGC (sugars l3 d9 l4, PS)	66.8 % of control
CTACTATTTACTATGCA (sugars l4 d10 l3, PS)	78.4 % of control
CTACTTTATTCCCTTAAC (sugars l4 d11 l3, PS)	91.3 % of control
CTACTTTATTCCCTTAACAA (sugars l2 d15 l3, PS)	86.8 % of control
CTAGCCCACCCATCAATTTG (sugars l3 d14 l3, PS)	0 % of control
CTAGTTATACAGTTGGCCCT (sugars l3 d14 l3, PS)	33.3 % of control
CTATTCCTGAATTTTTC (sugars l4 d10 l3, PS)	69 % of control

Sequence	calcium oscillation score
CTCAAAAATCAACGCCT (sugars l3 d10 l4, PS)	57 % of control
CTCAAAATCCTTAATTTAAC (sugars l4 d12 l4, PS)	64.4 % of control
CTCAAACTTAAATTTATT (sugars l4 d10 l4, PS)	82.4 % of control
CTCAAACTTAAATTTATTTT (sugars l4 d12 l4, PS)	90.7 % of control
CTCAAATCAAACTAATATT (sugars l4 d11 l4, PS)	98.6 % of control
CTCAAATCAATTCTCATTTC (sugars l4 d13 l3, PS)	62 % of control
CTCAACATTACCCTTAAATA (sugars l4 d14 l2, PS)	57.6 % of control
CTCAAGAAATGGTTTGCTAC (sugars l3 d14 l3, PS)	23.8 % of control
CTCACCCCAAACAAGA (sugars l3 d10 l3, PS)	65.6 % of control
CTCACCCCAAACAAGAA (sugars l2 d11 l4, PS)	45.1 % of control
CTCACTTTACACATTAAATT (sugars l4 d12 l4, PS)	59.8 % of control
CTCAGATTTTACTTCCA (sugars l4 d11 l2, PS)	45.2 % of control
CTCAGATTTTACTTCCAC (sugars l4 d12 l2, PS)	43.1 % of control
CTCAGCTAAGACCCTCAGGT (sugars l3 d14 l3, PS)	31.2 % of control
CTCAGCTCTTCCATAAGCAG (sugars l3 d14 l3, PS)	40.3 % of control
CTCAGGTCAACTGGTT (sugars l3 d10 l3, PS)	83.8 % of control
CTCATCAACACCTTTTAATT (sugars l4 d14 l2, PS)	78.7 % of control
CTCATTGCAACTTTAAC (sugars l4 d9 l4, PS)	84.9 % of control
CTCATTTACCAATTATCTTT (sugars l4 d14 l2, PS)	64 % of control
CTCATTTTTCTCAAGCTC (sugars l3 d12 l3, PS)	44.8 % of control
CTCCAATCTTACAGAT (sugars l4 d9 l3, PS)	102 % of control
CTCCAATTTTAAACTTA (sugars l4 d9 l4, PS)	66.5 % of control

Sequence	calcium oscillation score
CTCCAATTTTAAACTTAA (sugars l4 d10 l4, PS)	69 % of control
CTCCAATTTTAAACTTAAA (sugars l4 d11 l4, PS)	70.2 % of control
CTCCCATCACTAGCACT (sugars l1 d14 l2, PS)	38.3 % of control
CTCCCTTTAATGCCAGGCCC (sugars l3 d14 l3, PS)	20.1 % of control
CTCCTAATTTTGCACT (sugars l4 d10 l2, PS)	44.2 % of control
CTCCTAATTTTGCACTC (sugars l3 d11 l3, PS)	46.7 % of control
CTCCTAATTTTGCACTCA (sugars l3 d13 l2, PS)	50.5 % of control
CTCCTAGAACACAACAC (sugars l3 d10 l4, PS)	50.9 % of control
CTCCTATATTCTCAGT (sugars l3 d9 l4, PS)	73.7 % of control
CTCCTGGTTTATGATG (sugars l3 d10 l3, PS)	31.3 % of control
CTCCTGGTTTATGATGGATG (sugars l3 d14 l3, PS)	35 % of control
CTCGCGGAAGGTCAGC (sugars l3 d10 l3, PS)	0 % of control
CTCGCGGAAGGTCAGCTTGT (sugars l3 d14 l3, PS)	2.91 % of control
CTCGTCAGCTAGCGTG (sugars l3 d10 l3, PS)	27.1 % of control
CTCTAAGTAGACCCTGGCCA (sugars l3 d14 l3, PS)	19.1 % of control
CTCTCAAAAATCAACGC (sugars l4 d9 l4, PS)	66.3 % of control
CTCTCTGCATATATAAT (sugars l4 d9 l4, PS)	72.2 % of control
CTCTGGTCAAGGCTTT (sugars l3 d10 l3, PS)	0 % of control
CTCTGTCACTTACTACTC (sugars l3 d13 l2, PS)	80.8 % of control
CTCTTAGCATCAGAGG (sugars l3 d10 l3, PS)	70.4 % of control
CTCTTAGCATCCACTTA (sugars l3 d12 l2, PS)	44.5 % of control
CTCTTATCTTTGTTTCTA (sugars l4 d12 l2, PS)	51.1 % of control

Sequence	calcium oscillation score
CTCTTCAAATCATTCAA (sugars l4 d9 l4, PS)	68.4 % of control
CTCTTCAAATCATTCAAT (sugars l4 d10 l4, PS)	69.7 % of control
CTCTTCCACTACAAGC (sugars l3 d11 l2, PS)	46.2 % of control
CTCTTCCACTACAAGCTC (sugars l3 d13 l2, PS)	28.9 % of control
CTCTTGACAGTCACTGCTGA (sugars l3 d14 l3, PS)	29.4 % of control
CTCTTTCTTAATTCAGA (sugars l4 d10 l3, PS)	60.1 % of control
CTCTTTGAACACCCCATC (sugars l3 d13 l2, PS)	41.9 % of control
CTGAAAGAGGGCAGCA (sugars l3 d10 l3, PS)	36.8 % of control
CTGATCACAAACCCTGCTTG (sugars l3 d14 l3, PS)	20.3 % of control
CTGATCATAATCCTACC (sugars l3 d11 l3, PS)	54.9 % of control
CTGCCGGTGGAGGAGA (sugars l3 d10 l3, PS)	0 % of control
CTGCTCAGCTAAGACCCTCA (sugars l3 d14 l3, PS)	4.03 % of control
CTGGACGTTGCTAAGA (sugars l3 d10 l3, PS)	0 % of control
CTGGCCACCTCCTGGT (sugars l3 d10 l3, PS)	16.1 % of control
CTGGCCATCTTATGCTGACC (sugars l3 d14 l3, PS)	12.8 % of control
CTGGTTTATGATGG (sugars l3 d8 l3, PS)	32.6 % of control
CTGGTTTATGATGGAT (sugars l3 d10 l3, PS)	0 % of control
CTGGTTTATGATGGATGTTG (sugars l3 d14 l3, PS)	0 % of control
CTGGTTTGTAGACTATTTGC (sugars l3 d14 l3, PS)	0 % of control
CTGTCACTATCACTTCA (sugars l2 d11 l4, PS)	75.3 % of control
CTGTGCTTCAGGCCTT (sugars l3 d10 l3, PS)	51 % of control
CTTAAAATTTTTCTTATTTT (sugars l4 d12 l4, PS)	62.8 % of control

Sequence	calcium oscillation score
CTTAATTCATTTAATTCTCT (sugars l3 d13 l4, PS)	90.1 % of control
CTTAATTTCACCCTC (sugars l3 d9 l3, PS)	122 % of control
CTTAATTTCACCCTCA (sugars l3 d10 l3, PS)	40.3 % of control
CTTACAACCAACACTGA (sugars l3 d10 l4, PS)	49.7 % of control
CTTACACACCACACACACT (sugars l1 d16 l2, PS)	100 % of control
CTTACACACCACACACACTC (sugars l1 d17 l2, PS)	88.5 % of control
CTTACACATAGCTTCT (sugars l4 d8 l4, PS)	47.1 % of control
CTTACCATCCTATCTTC (sugars l3 d11 l3, PS)	87 % of control
CTTACTGATCATAATC (sugars l4 d8 l4, PS)	56.4 % of control
CTTACTGATCATAATCC (sugars l4 d9 l4, PS)	85.1 % of control
CTTACTTTCTACTCAATTCC (sugars l2 d16 l2, PS)	60.6 % of control
CTTAGCATCAGAGGTTTCAG (sugars l3 d14 l3, PS)	7.41 % of control
CTTAGTCATCTTCCCTC (sugars l2 d13 l2, PS)	92.4 % of control
CTTAGTCATCTTCCCTCA (sugars l2 d14 l2, PS)	93.8 % of control
CTTATTAATTATCTGC (sugars l4 d8 l4, PS)	33.9 % of control
CTTATTGCTTTCCAATTC (sugars l2 d12 l4, PS)	83.6 % of control
CTTCAGGTCTGGCATGGGCA (sugars l3 d14 l3, PS)	0 % of control
CTTCAGTCCTAATCCT (sugars l3 d10 l3, PS)	95.8 % of control
CTTCATTCTTGCCCAA (sugars l3 d10 l3, PS)	33.3 % of control
CTTCCAAGACTTCTCC (sugars l4 d10 l2, PS)	77.2 % of control
CTTCCAGTCCCGTCTT (sugars l3 d10 l3, PS)	0 % of control
